In patent US8440683B2, “Pharmaceutical preparation for treating demyelinating diseases of the nervous system; preparation promoting restoration of the myelin sheath of nerve fibers; and a method for treating demyelinating diseases of the nervous system” (priority 2007, dated 2013):

Experiments:
[1] = clinical scale; abscesses, hematomas, elevated arterial pressure, allergic reactions etc.; cited from earlier work
[2] = system: connective tissue development; settings: damage to a nerve; U.S.S.R. Patent No. 1,713,151; cited from earlier work
[3] = treatment of myelopathy patients with lateral amyotrophic syndrome; type: in vivo; settings: intramuscular 2.0 ml of 0.25% solution twice a day, two to three weeks
Description: Administration of stephaglabrin sulfate intramuscularly in 2.0 ml doses of a 0.25% solution twice a day for two to three weeks in treating myelopathy patients showing elements of a lateral amyotrophyic syndrome.

Schwann cells = experiment: stimulation of Schwann cell growth and myelin formation; settings: inventors' experiments
[4] = treatment of patients with cerebrospinal form of disseminated sclerosis; type: in vivo; settings: disseminated sclerosis with tetraparesis, cerebello-ataxic syndrome, pelvic disorders
Excerpt: The preparation was effective in patients suffering from the cerebrospinal form of disseminated sclerosis combined with tetraparesis, cerebello-ataxic syndrome, and pelvic disorders.

[5] = in water and aqueous alcohol; cited from earlier work
[6] = treatment of amyotrophic lateral sclerosis patients; type: in vivo
Excerpt: Another patient had their disordered breathing, which could not be corrected by other preparations, restored.

[7] = system: true and false cholinesterase; settings: cited from earlier work
[8] = in vivo; cited from earlier work
[9] = in vivo; cited from earlier work; remark: listed apart in the source
degenerating nerves = experiment: myelination of degenerating nerves in rats; type: in vivo
Excerpt: By comparison, myelination of nerve fibers proceeded slowly in control animals that were not treated with stephaglabrin sulfate and was not completed even within 100 to 120 days.

[10] = treatment of syringomyelia patients; type: in vivo
Description: The preparation was administered to 37 patients suffering from syringomyelia.
Along with the administration of the preparation, all the patients were directed to take massage sessions, physiotherapy exercises, spine ionization by potassium iodide, and vitamins B1 and B12. […] Special attention must be drawn to the fact that the malfunctions are corrected in patients showing early signs of syringobulbia.

smooth muscles = settings: cited from earlier work

Row | Substance | side reactions on clinical use [1] | activity in relation to connective tissue development, preventing formation of scars [2] | clinical effects observed [3] | growth of Schwann cells and subsequent myelin formation (Schwann cells) | clinical effectiveness [4] | solubility [5] | therapeutic effect ([6]; 14 patients with severe amyotrophic lateral sclerosis) | disordered breathing ([6]; another patient, not corrected by other preparations) | patients with strength build-up in the extremities and reduced bulbar disorders ([6]; of 14 patients) [patients] | swallowing ([6]; one patient with aphonia and dysphagia, after 10 days of 2 ml twice a day) | activity of true and false cholinesterase [7] | arterial pressure [8] | toxicity [9] | start of myelination of degenerating nerves (degenerating nerves; 0.1 to 1.0 mg/kg, versus untreated animals) | speed of impulse passage in the nerve (degenerating nerves; electrophysiological studies) | time to lowered levels of sensing disorders ([10]; from the start of treatment, 2 ml twice a day plus massage, physiotherapy, vitamins) | patients with a positive effect ([10]; of 37 syringomyelia patients) [patients] | onset of decline of sympathalgic pain intensity ([10]; some patients) | effect on smooth muscles (smooth muscles)
1 | glatiramer acetate [Copaxone-Teva] | Numerous side reactions | – | – | – | – | – | – | – | – | – | – | – | – | – | – | – | – | – | –
2 | stephaglabrin sulfate | – | specific inhibiting activity | disappearance of fibrillations, reduction in amyotrophy intensity and polykinetics of proprioceptive reflexes, and growth of muscle power in the arms | stimulate the growth of Schwann cells | effective | well soluble | positive therapeutic effect | restored | 12 | significant improvement in swallowing | suppresses the activity | lowers arterial pressure | low toxicity | stimulates an early start of myelination | complete recovery | within two to three weeks | 28 | 10th to 12th day | tonic effect
